Source: EP1229027A1 (priority 1996, dated 1998)

What was measured:
Pythium ultimum = test: Fungitoxicity against Pythium ultimum (mycelial dry weight growth in liquid asparagine-sucrose broth); type: cell-based; conditions: Globisporangium ultimum; 100 ppm of the compound; 48 hours at 25 °C; increase in mycelial dry weight compared to controls
Experimental: Compounds were tested for fungitoxicity against Pythium ultimum according to the procedures set forth below.
Test compounds were dissolved in dimethylsulfoxide at 20 mg/ml and 0.1 ml was added to 19.9 ml of a liquid asparagine-sucrose broth, prepared according to the method described in Erwin, D.C., and Katznelson, K., Canadian Journal of Microbiology 7, 15 (1971), in 9 cm petri dishes to give a concentration of 100 ppm of the compound. Each plate was inoculated with a mycelial plug, 7 mm in diameter, taken from the growing edge of a culture of Pythium ultimum grown on potato dextrose agar. Two replicate plates were used for each treatment. After growth for 48 hours at 25 °C with shaking on a gyrotary shaker at 60 rpm, the increase in mycelial dry weight was determined. Fungitoxicity was recorded as percent inhibition of growth as compared to controls lacking the test compounds. 2.

Phytophthora infestans = type: in vivo; conditions: Rate 300 ppm; tomato seedlings; evaluated 6 days after inoculation
Plasmopara viticola = conditions: in vivo

SMILES | inhibition at 100 ppm (Pythium ultimum) | TLB (percent disease control) (Phytophthora infestans) | GDM (percent disease control) (Plasmopara viticola)
CCC(C)(NC(=O)c1ccc2c(c1)NC(=O)CO2)C(=O)CCl (stereo not shown) [Compound 11, N-(3-chloro-1-ethyl-1-methyl-2-oxopropyl)-1,4-benzoxazine-3-one-6-carboxamide] | 34.3% | 95% | 0%
CCC(C)(NC(=O)c1ccc2c(c1)NC(=O)CO2)C(=O)C(Cl)Cl (stereo not shown) [Compound 13, N-(3,3-dichloro-1-ethyl-1-methyl-2-oxopropyl)-1,4-benzoxazine-3-one-6-carboxamide] | 60.8% |  | 
CCC(C)(NC(=O)c1ccc2nc(C)oc2c1)C(=O)CCl (stereo not shown) [Compound 2, N-(3-chloro-1-ethyl-1-methyl-2-oxopropyl)-2-methylbenzoxazole-6-carboxamide] | 92.2% | 90% | 100%
